Data taken from US7332480B2, “Compositions for the regulation of cytokine activity” (Yeda Research and Development Co. Ltd., priority 1992, dated 2008).

Key:
[1] = test system: experimental DTH reaction in mice; assay: In vivo bioassay of inhibition of experimental DTH reactivity (oxazolone, ear swelling); parameters: key to effect on DTH (printed in the Dose column): “N.E.” indicates that no effect was observed at the tested dosage range of 0.000004-4 μg/gm mouse; settings: for DTH / effective dose range for inhibition ≧50% of control: CD1 mice; for effective dose range for inhibition ≧50% of control: Table XXIIIC footnotes, DTH; for effect on DTH (printed in the Dose column): tested dosage range of 0.000004-4 μg/gm mouse s.c.
Procedure: Groups of inbred BALB/c (Jackson Laboratories, Bar Harbor, Me.) or of outbred CD1 (Weizmann Institute Animal Breeding Center, Rehovot, Israel) mice are sensitized on the shaved abdominal skin with 100 μl of 2% oxazolone (OX) in acetone/olive oil (4/1, v/v) applied topically. DTH sensitivity is elicited 5 days later as follows: mice are challenged with 20 μl of 0.5% OX (10 μl administered topically to each side of the ear) in acetone/olive oil. A constant area of the ear is measured immediately before challenge and 24 and 48 h later with a Mitutoyo engineer's micrometer. The individual measuring ear swelling is blinded to the identity of the groups of mice. The increment (Δ) of ear swelling is expressed as the mean in units of 10^−2 mm or 10^−4 inch (+SE) depending on the micrometer that is used. Percent inhibition is calculated as follows: […]
Mice are treated with LMWH again Example 5.1, injected the day before primary sensitization to OX. On the fifth day after sensitization to OX, the 10 mice are challenged to induce a DTH reaction, as described above.
The positive control is the DTH reaction elicited in immunized mice in the absence of treatment with LMWH. The negative control is the background swelling produced by the antigen in naive (non-immunized) mice. […]
BALB/c mice (at least 5 mice per group) were sensitized on the shaved abdomen with 3% 4-ethoxymethylene-2-phenyl oxazolone (OX; BDH-Chemicals, GB) in acetone/olive oil applied topically. DTH sensitivity was elicited 5 days later as follows. Mice were challenged with 0.5% OX in acetone/olive oil. The ear was measured immediately before challenge and 24 h later with Mitutoyo engineer's micrometer (Japan). The individual measuring the swelling of the ear was blinded to the identity of the groups of mice. To interfere with DTH response, the low molecular weight immuno-regulatory fractions, diluted in PBS, were administrated subcutaneously into the back of the treated mice at the indicated time schedules and concentrations. Treated mice were inspected during and after (>2 months) the treatment and no major side-effects were observed clinically.
In particular, CD1 mice (available from the Weizmann Institute Animal Breeding Center, Rehovot, Israel), 4-12 mice per group were treated as described in Section 5.2 or 6.8.

[2] = test system: adjuvant arthritis; assay: Adjuvant arthritis (AA) in rats; type: in vivo, Lewis rats
[3] = test system: IDDM of NOD mice; assay: Insulin dependent diabetes mellitus (IDDM) of NOD mice; type: in vivo; settings: H-9392 30 ng, glucosamine 10,000 ng; all the control mice had died (FIG. 41A)
[4] = test system: mortality after irradiation; assay: Radioprotective effects in gamma-irradiated mice; type: in vivo, BALB/c mice; settings: 750 rads; three administrations; 300 ng H-9392, 1 μg glucosamine
Procedure: Groups of female BALB/c mice, 8 weeks old, 5-10 mice per group, were injected subcutaneously with either saline (0.1 ml, control), H-9392 (30 ng/mouse), or glucosamine (10,000 ng/mouse) 1 day before irradiation, and weekly thereafter until termination of the experiment on day 30. All the mice were irradiated to a dose of 700 rads using a ^60Co gamma radiation source.
The mortality within the different groups of mice was then scored over a 30 day period. […] The group of mice which had been injected with glucosamine also fared better than the control group, showing a 20% mortality rate in the same period.
In a separate experiment, groups of BALB/c mice (5 mice to a group) were likewise exposed to 750 rads of gamma-rays, except that these groups of mice were treated with test substances (saline at 0.1 ml per mouse; H-9392 at 0.3, 3, 30 and 300 ng/mouse; and glucosamine at 1, 10 and 100 μg/mouse) on the day before irradiation, on the sixth day after irradiation, and once again on the thirteenth day after irradiation only. All treatment ceased after the third and last administration.

[5] = test system: LPS-induced inflammation of the cornea; assay: LPS-induced inflammation of the rat cornea; type: in vivo, Lewis rats
Procedure: LPS-induced inflammation of the cornea is TNF dependent, as shown by the work of Vanderhagen, C. and co-workers in the Netherlands, “Kinetics of Intraocular TNF and IL-6 in Endotoxin-Induced Uveitis in the Rat,” submitted for publication. Using a 30-gauge needle, LPS (5 ng) was injected into the cornea of Lewis rats. After one day, separate groups of rats, 2 to a group (or 4 eyes to a group) were then injected subcutaneously with phosphate-buffered saline (0.05 ml) or H-1020 (at a dose of either 50 ng/rat or 200 ng/rat). The effects, if any, were scored as follows:
in which the sum of the points is used as the total score.

[6] = test system: secretion of active TNF-α by activated human CD4+ T cells; assay: Bioassay of TNF-α activity using human CD4+ T cells derived from PBLs (human PBL bioassay); type: cell-based; settings: for Bioassay of TNF Activity: Table XXIII, conc range of 1 μg/ml-0.01 pg/ml, inconsistent = same result not obtained for all three bioassays; for “R” value: no effect, zero assigned
Source text: Non adherent cells were eluted and washed.
Nophar, Y. et al. J. Immunol. (1988) 140 (10):3456-3460.

[7] = Table XXIIIA, no effect, zero assigned

N[C@H]1C(O)O[C@H](CO)[C@H](O)[C@@H]1O (stereo partly drawn) [GalN, D-Galactosamine, reference compound]
DTH ([1]; Table XXIIIC, 0.00004 μg/gm s.c., control 18.9 ± 0.7): 8.9 ± 0.6 10^−2 mm | DTH ([1]; Table XXIIIC, 0.12 μg/gm s.c., control 18.9 ± 0.7): 6.5 ± 0.7 10^−2 mm | effect on AA ([2]; different dosages, s.c. weekly (FIG. 38C)): inhibitory effects but to a much lesser degree

N[C@@H](C=O)[C@@H](O)[C@H](O)[C@H](O)CO [GlcN, 2-amino-2-deoxy-D-glucose, reference compound]
DTH ([1]; Table XXIIIC, 0.000012 μg/gm s.c., control 19.7 ± 1.2): 5 ± 0.7 10^−2 mm | DTH ([1]; Table XXIIIC, 0.4 μg/gm s.c., control 19.7 ± 1.2): 2.3 ± 0.9 10^−2 mm | mice died by age 5 months [3]: about half | activity in suppressing mortality after irradiation [4]: moderate activity

O=S(=O)(O)N[C@H]1C(O)O[C@H](CO)[C@@H](O)[C@@H]1OS(=O)(=O)O (stereo partly drawn) [GlcN-2, 3S, D-Glucosamine-2,3-disulfate, reference compound]
effective dose range for inhibition ≧50% of control ([1]; s.c.): narrow

O=S(=O)(O)N[C@H]1C(O)O[C@H](COS(=O)(=O)O)[C@@H](O)[C@@H]1O (stereo partly drawn) [GlcN-2, 6S, D-Glucosamine-2,6-disulfate, reference compound]
effective dose range for inhibition ≧50% of control ([1]; s.c.): narrow

O=S(=O)(O)N[C@H]1C(O)O[C@H](CO)[C@@H](O)[C@@H]1O (stereo partly drawn) [GlcN-2S, D-Glucosamine-2-N-sulfate, reference compound]
“R” value ([1]; Table XXIIIC, no effect, zero assigned): 0 % × (μg/gm)^−1 | effect on DTH (printed in the Dose column) ([1]; Table XXIIIC): N.E.

N[C@H]1C(O)O[C@H](CO)[C@@H](O)[C@@H]1OS(=O)(=O)O (stereo partly drawn) [GlcN-3S, D-Glucosamine-3-sulfate, reference compound]
effect on DTH (printed in the Dose column) ([1]; Table XXIIIC): N.E.

N[C@H]1C(O)O[C@H](COS(=O)(=O)O)[C@@H](O)[C@@H]1O (stereo partly drawn) [GlcN-6S, D-Glucosamine-6-sulfate, reference compound]
effect on DTH (printed in the Dose column) ([1]; Table XXIIIC): N.E.

O=C(O)C1=C[C@H](O)[C@@H](O)[C@H](O[C@H]2[C@H](O)[C@@H](NS(=O)(=O)O)C(O)O[C@@H]2COS(=O)(=O)O)O1 (stereo partly drawn) [H-1020, 4-deoxy-4-en-iduronic acid-(α-1,4)-2-deoxy-2-N-sulfate-6-O-sulfateglucosamine]
effect on local LPS-induced inflammation relative to control ([5]; 50 ng/rat s.c. (FIG. 39)): effective to suppress | effect on local LPS-induced inflammation relative to control ([5]; 200 ng/rat s.c. (FIG. 39)): failed to provide a significant effect

O=C(O)C1=C[C@H](O)[C@@H](O)[C@H](O[C@H]2[C@H](O)[C@@H](NS(=O)(=O)O)C(O)O[C@@H]2CO)O1 (stereo partly drawn) [H-1145, 4-deoxy-4-en-iduronic acid-(α-1,4)-2-deoxy-2-N-sulfateglucosamine]
“R” value [1, 7]: 0 % × (μg/gm)^−1 | effect on DTH (printed in the Dose column) ([1]; Table XXIIIA): N.E.

CC(=O)NC1C(O)OC(COS(=O)(=O)O)C(OC2OC(C(=O)O)=CC(O)C2O)C1O (stereo not drawn) [H-8642, 4-deoxy-4-en-iduronic acid-(α-1,4)-2-deoxy-2-N-acetyl-6-O-sulfateglucosamine]
“R” value [1, 7]: 0 % × (μg/gm)^−1 | effect on DTH (printed in the Dose column) ([1]; Table XXIIIA): N.E. | Bioassay of TNF Activity [6]: Inconsistent

CC(=O)N[C@H]1C(O)O[C@H](CO)[C@@H](O[C@@H]2OC(C(=O)O)=C[C@H](O)[C@H]2OS(=O)(=O)O)[C@@H]1O (stereo partly drawn) [H-8767, 2-O-sulfate-4-deoxy-4-en-iduronic acid-(α-1,4)-2-deoxy-2-N-acetylglucosamine]
“R” value [1, 7]: 0 % × (μg/gm)^−1 | effect on DTH (printed in the Dose column) ([1]; Table XXIIIA): N.E. | Bioassay of TNF Activity [6]: Inconsistent

NC1C(O)OC(COS(=O)(=O)O)C(OC2OC(C(=O)O)=CC(O)C2OS(=O)(=O)O)C1O (stereo not drawn) [H-8892, 2-O-sulfate-4-deoxy-4-en-iduronic acid-(α-1,4)-2-deoxy-6-O-sulfateglucosamine]
“R” value [1, 7]: 0 % × (μg/gm)^−1 | effect on DTH (printed in the Dose column) ([1]; Table XXIIIA): N.E. | Bioassay of TNF Activity [6]: No effect | “R” value [6]: 0 % × (pg/ml)^−1

N[C@H]1C(O)O[C@H](COS(=O)(=O)O)[C@@H](O[C@@H]2OC(C(=O)O)=C[C@H](O)[C@H]2O)[C@@H]1O (stereo partly drawn) [H-9017, 4-Deoxy-4-en-iduronic acid-(α-1,4)-2-deoxy-6-O-sulfateglucosamine]
“R” value [1, 7]: 0 % × (μg/gm)^−1 | effect on DTH (printed in the Dose column) ([1]; Table XXIIIA): N.E. | Bioassay of TNF Activity [6]: No effect | “R” value [6]: 0 % × (pg/ml)^−1

N[C@H]1C(O)O[C@H](CO)[C@@H](O[C@@H]2OC(C(=O)O)=C[C@H](O)[C@H]2OS(=O)(=O)O)[C@@H]1O (stereo partly drawn) [H-9142, 2-O-sulfate-4-deoxy-4-en-iduronic acid-(α-1,4)-2-deoxyglucosamine]
“R” value [1, 7]: 0 % × (μg/gm)^−1 | effect on DTH (printed in the Dose column) ([1]; Table XXIIIA): N.E. | Bioassay of TNF Activity [6]: Inconsistent

O=C(O)C1=C[C@H](O)[C@@H](OS(=O)(=O)O)[C@H](O[C@H]2[C@H](O)[C@@H](NS(=O)(=O)O)C(O)O[C@@H]2COS(=O)(=O)O)O1 (stereo partly drawn) [H-9267, 2-O-sulfate-4-deoxy-4-en-iduronic acid-(α-1,4)-2-deoxy-2-N-sulfate-6-O-sulfateglucosamine]
“R” value ([1]; Table XXIIIA, inhibition of DTH, s.c.): 1.60 × 10^5 % × (μg/gm)^−1 | Bioassay of TNF Activity [6]: Inconsistent

CC(=O)N[C@H]1C(O)O[C@H](COS(=O)(=O)O)[C@@H](O[C@@H]2OC(C(=O)O)=C[C@H](O)[C@H]2OS(=O)(=O)O)[C@@H]1O (stereo partly drawn) [H-9517, 2-O-sulfate-4-deoxy-4-en-iduronic acid-(α-1,4)-2-deoxy-2-N-acetyl-6-O-sulfateglucosamine]
Bioassay of TNF Activity [6]: Inconsistent^c

CC(=O)N[C@H]1C(O)O[C@H](CO)[C@@H](O)[C@@H]1O (stereo partly shown) [NAc-GlcN, N-Acetylglucosamine, reference compound]
effect on DTH (printed in the Dose column) ([1]; Table XXIIIC): N.E.

C[C@@H]1C[C@H]2[C@@H]3CCC4=CC(=O)C=C[C@]4(C)[C@@]3(F)[C@@H](O)C[C@]2(C)[C@@]1(O)C(=O)COP(=O)(O)O [dexamethasone phosphate, reference compound]
course of AA after treatment was ended ([2]; treatment from day 12, dexamethasone phosphate daily or weekly, disaccharide weekly): suffered a relapse | severity of the AA score at 30 days post-induction ([2]; weekly s.c. from day 12, dexamethasone phosphate 100 μg or disaccharide 120 ng per rat (FIG. 38G)): only a moderate reduction in the severity of the AA score
